Here are results for one molecule from ChEMBL document CHEMBL5352412, “Discovery of 1,2-diphenylethene derivatives as human DNA topoisomerase II catalytic inhibitors and antitumor agents” (Eur J Med Chem, 2022).

A short description of series [1]: Selectivity index, ratio of IC50 for human HL-7702 cells to IC50 for human HeLa cells. Format: toxicity. The conditions noted are these: HL-7702 cells versus HeLa cells, read-out: Ratio IC50.
In series [2] the target is T1, DNA topoisomerase 2-alpha (Homo sapiens, UniProt P11388). As to the kind of experiment: Inhibition of human topoisomerase 2-alpha assessed as reduction in VP-16 induced enzyme-DNA cleavage complex formation by measuring linear DNA production. The conditions noted are these: dose 10-100 µM.
T1 sequence (P11388 whole entry): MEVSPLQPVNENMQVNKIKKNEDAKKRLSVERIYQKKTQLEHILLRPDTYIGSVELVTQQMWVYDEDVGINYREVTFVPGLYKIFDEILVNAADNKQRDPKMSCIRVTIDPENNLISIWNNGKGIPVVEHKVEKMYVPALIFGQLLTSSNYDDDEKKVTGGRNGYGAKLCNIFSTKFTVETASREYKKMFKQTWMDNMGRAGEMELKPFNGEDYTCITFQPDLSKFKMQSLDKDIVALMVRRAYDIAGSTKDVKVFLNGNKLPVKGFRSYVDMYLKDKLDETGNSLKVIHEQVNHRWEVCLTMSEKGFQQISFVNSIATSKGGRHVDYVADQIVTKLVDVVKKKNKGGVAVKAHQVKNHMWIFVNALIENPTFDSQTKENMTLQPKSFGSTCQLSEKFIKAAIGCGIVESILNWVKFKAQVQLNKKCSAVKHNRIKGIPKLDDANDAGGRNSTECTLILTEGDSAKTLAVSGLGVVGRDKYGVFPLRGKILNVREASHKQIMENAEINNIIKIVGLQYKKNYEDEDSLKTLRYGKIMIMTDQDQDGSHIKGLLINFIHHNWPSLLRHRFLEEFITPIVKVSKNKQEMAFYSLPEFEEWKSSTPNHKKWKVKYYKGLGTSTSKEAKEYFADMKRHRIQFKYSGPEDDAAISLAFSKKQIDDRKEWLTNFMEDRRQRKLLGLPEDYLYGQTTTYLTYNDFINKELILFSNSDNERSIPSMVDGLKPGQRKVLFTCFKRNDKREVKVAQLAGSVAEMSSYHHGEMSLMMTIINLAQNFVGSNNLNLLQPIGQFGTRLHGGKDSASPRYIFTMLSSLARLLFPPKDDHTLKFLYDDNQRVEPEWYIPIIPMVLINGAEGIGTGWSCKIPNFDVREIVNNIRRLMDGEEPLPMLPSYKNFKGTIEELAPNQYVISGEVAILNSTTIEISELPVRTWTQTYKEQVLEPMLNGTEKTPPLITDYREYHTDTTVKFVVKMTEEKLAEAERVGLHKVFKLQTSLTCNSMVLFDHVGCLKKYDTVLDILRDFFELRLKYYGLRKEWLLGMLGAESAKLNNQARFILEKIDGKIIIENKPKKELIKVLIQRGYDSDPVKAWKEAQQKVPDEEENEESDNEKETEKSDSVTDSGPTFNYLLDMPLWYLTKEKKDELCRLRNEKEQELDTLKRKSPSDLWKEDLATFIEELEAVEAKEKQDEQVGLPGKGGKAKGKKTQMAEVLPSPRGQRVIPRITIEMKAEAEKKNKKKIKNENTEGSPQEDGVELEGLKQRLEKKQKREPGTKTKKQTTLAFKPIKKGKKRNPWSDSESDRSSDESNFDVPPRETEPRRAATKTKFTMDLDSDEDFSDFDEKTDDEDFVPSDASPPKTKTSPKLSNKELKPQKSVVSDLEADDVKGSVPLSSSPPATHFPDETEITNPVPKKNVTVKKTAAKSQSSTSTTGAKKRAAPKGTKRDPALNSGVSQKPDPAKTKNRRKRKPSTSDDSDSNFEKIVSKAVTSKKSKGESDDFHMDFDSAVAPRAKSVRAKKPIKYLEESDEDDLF
Series [3] relates to HepG2. As to the kind of experiment: Induction of cell cycle arrest in human HepG2 cells assessed as accumulation of cells at G2/M phase at 1 uM incubated for 24 hrs by PI staining based flow cytometry analysis (reference value: 17.5%). Format: functional. (Flow cytometry measures light scatter and fluorescence of single cells or particles in a stream.)
The target in another series is DNA topoisomerase 2-beta (Homo sapiens, UniProt Q02880). As to the kind of experiment: Inhibition of human topoisomerase 2-beta assessed as reduction in relaxation of pBR322 DNA measured after 30 mins by agarose gel electrophoresis method.
Sequence of DNA topoisomerase 2-beta (Q02880 whole entry): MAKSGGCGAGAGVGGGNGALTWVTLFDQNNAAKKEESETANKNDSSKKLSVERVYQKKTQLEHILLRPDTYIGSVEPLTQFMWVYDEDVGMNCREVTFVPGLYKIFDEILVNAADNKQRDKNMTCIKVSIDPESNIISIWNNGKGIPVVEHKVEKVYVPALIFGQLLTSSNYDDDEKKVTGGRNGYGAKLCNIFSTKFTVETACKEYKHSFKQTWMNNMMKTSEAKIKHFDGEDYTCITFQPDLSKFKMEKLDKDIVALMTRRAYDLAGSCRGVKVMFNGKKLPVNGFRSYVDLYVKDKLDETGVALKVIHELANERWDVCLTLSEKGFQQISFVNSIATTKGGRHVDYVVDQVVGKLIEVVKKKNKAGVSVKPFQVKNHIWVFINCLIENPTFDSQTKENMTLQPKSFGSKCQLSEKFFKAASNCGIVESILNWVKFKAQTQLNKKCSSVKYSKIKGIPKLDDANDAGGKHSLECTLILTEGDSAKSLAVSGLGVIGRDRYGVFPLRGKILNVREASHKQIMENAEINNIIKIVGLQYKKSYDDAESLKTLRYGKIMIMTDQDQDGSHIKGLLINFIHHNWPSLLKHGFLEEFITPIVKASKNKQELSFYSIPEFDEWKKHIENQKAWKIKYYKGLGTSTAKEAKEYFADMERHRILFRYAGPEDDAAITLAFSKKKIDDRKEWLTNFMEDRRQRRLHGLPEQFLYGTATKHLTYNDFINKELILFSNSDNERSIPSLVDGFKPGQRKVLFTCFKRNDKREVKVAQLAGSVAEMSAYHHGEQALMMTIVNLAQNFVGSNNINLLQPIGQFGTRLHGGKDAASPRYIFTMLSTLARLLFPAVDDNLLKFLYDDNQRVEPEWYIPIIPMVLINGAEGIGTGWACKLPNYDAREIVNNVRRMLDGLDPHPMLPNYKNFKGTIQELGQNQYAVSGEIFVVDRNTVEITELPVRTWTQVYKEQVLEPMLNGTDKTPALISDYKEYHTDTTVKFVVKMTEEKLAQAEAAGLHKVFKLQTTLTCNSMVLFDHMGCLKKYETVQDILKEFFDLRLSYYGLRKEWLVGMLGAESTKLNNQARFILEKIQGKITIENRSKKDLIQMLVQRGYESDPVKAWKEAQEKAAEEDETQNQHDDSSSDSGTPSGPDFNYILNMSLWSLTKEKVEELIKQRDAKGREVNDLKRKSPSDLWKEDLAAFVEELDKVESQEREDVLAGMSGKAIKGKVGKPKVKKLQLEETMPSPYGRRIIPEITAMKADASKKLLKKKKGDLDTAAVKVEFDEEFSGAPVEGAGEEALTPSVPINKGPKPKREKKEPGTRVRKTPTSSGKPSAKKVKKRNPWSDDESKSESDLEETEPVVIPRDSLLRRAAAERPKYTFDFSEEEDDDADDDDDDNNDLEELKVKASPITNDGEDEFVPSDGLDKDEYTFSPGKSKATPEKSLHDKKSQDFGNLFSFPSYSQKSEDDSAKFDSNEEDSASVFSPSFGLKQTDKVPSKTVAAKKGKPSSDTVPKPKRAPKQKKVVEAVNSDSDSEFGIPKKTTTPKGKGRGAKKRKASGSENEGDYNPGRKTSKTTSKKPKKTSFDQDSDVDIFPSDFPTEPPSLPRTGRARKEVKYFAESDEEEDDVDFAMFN
Series [4] has as its system HepG2. In words: Induction of apoptosis in human HepG2 cells assessed as viable cells at 0.5 uM incubated for 24 hrs by annexin-V FITC and PI staining based flow cytometry analysis (reference value: 93.8%). Format: functional. The conditions noted are these: read-out: Activity.
In series [5] the test system is HepG2. As to the kind of experiment: Induction of apoptosis in human HepG2 cells assessed as viable cells at 1 uM incubated for 24 hrs by annexin-V FITC and PI staining based flow cytometry analysis (reference value: 93.8%). Type of series: functional. The conditions noted are these: read-out: Activity.
The species entered for a further series is Homo sapiens. As to the kind of experiment: Selectivity index, ratio of IC50 for human CCL-226 cells to IC50 for human MDA-MB-231 cells.
For series [6], the target named is T1, DNA topoisomerase 2-alpha. As to the kind of experiment: Inhibition of human topoisomerase 2-alpha assessed as reduction in relaxation of pBR322 DNA at 100 uM measured after 30 mins by agarose gel electrophoresis method relative to control.
Series [7] can be described thus: Selectivity index, ratio of IC50 for human BEAS-2B cells to IC50 for human MDA-MB-231 cells. Format: toxicity. The conditions noted are these: BEAS-2B cells versus MDA-MB-231 cells, read-out: Ratio IC50.
The subject of a further series is HCT-116. As to the kind of experiment: Antiproliferative activity against human HCT-116 cells incubated for 72 hrs by CCK8 assay. The conditions noted are these: HCT-116, 72 h. Format: functional, cell-based. (Tetrazolium assays rely on reduction of a dye to a coloured formazan, in cell work by metabolically active cells.)
In series [8] the test system is HepG2. In words: Induction of apoptosis in human HepG2 cells assessed as late apoptotic cells at 0.5 uM incubated for 24 hrs by annexin-V FITC and PI staining based flow cytometry analysis (reference value: 2.3%). Type of series: functional.
Series [9] has as its system HepG2. In words: Induction of cell cycle arrest in human HepG2 cells assessed as accumulation of cells at G1 phase at 0.5 uM incubated for 24 hrs by PI staining based flow cytometry analysis (reference value: 54%). Type of series: functional.
Series [10] concerns HepG2. In words: Induction of apoptosis in human HepG2 cells assessed as necrotic cells at 1 uM incubated for 24 hrs by annexin-V FITC and PI staining based flow cytometry analysis (reference value: 0.2%). Type of series: functional.

Broadly, the inhibition is the percentage by which the read-out fell short of the control. One may read the IC50 as the point on the concentration scale where inhibition reaches its midpoint. Turning to `O=C(CCc1ccccc1)Nc1ccc(-c2ccc3cc(O)ccc3c2)cc1`, the selectivity ratio in series [1] and in series [7] was greater than 52.1 each time. Moreover, the inhibition result is “Dose-Dependent Effect” in [2] and 82.1% in [6]. Besides, the Activity in the series with HepG2 [3] was found to be 84.1%; with HepG2 [8] it was 13.4%; in the series with HepG2 [9], 19%; with HepG2 [10] it was 0.3%. Further, the IC50 on DNA topoisomerase 2-beta was 10.1 µM; with HCT-116, 0.2 µM. The viability at 0.5 µM in the series with HepG2 [4] was found to be 72.5%. In addition, in the series with HepG2 [5], the viability at 1 µM was determined as 29.2%. Moreover, in the series listed under Homo sapiens, the Ratio IC50 is greater than 52.1.
